By IC50 is commonly meant the point on the concentration scale where inhibition reaches its midpoint.

Some results are limits rather than exact numbers.

We go through one molecule from paper PMC9879939, “Synergy of ruthenium metallo-intercalator, [Ru(dppz)2(PIP)]^2+, with PARP inhibitor Olaparib in non-small cell lung cancer cells” (Scientific Reports, 2023).

One experiment relates to A549 cells. Nature of the experiment: Apoptosis annexin V-FITC assay. Type of experiment: cell-based, human. The procedure:
Lung cancer cells were seeded in 6-well plate at 1 × 10^5 cells/well and allowed to adhere overnight. Cells were treated with Ru-PIP (25 µM), Olaparib (5 µM) or both. After 24 or 48 h incubations, cells were harvested, washed with 1X PBS twice and 500 µl of 1X binding buffer was added to the samples. After, the samples were incubated with 5 µl Annexin V-FITC (Invitrogen) for 20 min at RT. Prior to flow cytometric analysis, 5 µl of PI was added. Samples were acquired was analyzed using NovoCyte flow cytometer and NovoExpress software. For each sample, a minimum of 10,000 cells were counted and analyzed.

Another experiment concerns A549 lung cancer cells. Nature of the experiment: MTT assay (cell viability; CI and SI derived from it). As to conditions: for IC50: A549, max tested 100 μM, combinations: Ru-PIP gradient with fixed Olaparib; for Selectivity Index (SI) = IC50 normal cells/IC50 cancer cells: MRC5 vs A549. In kind it is cell-based, human. Here is the method:
Cells were seeded in 96-well plates at 5 × 10^3 cells/well and allowed to adhere overnight. […] For drug combination treatment, cells were treated with concentration gradient of Ru-PIP (3.125–100 µM) in combination with Olaparib (5 or 10 µM). After 24, 48 or 72 h incubation, 0.5 mg/ml thiazolyl blue tetrazolium bromide (MTT) dissolved in 1X PBS was added to each well and cells were incubated at 37 °C for 4 h. 100 µl of DMSO was added to each well to solubilize the reduced purple formazan crystals formed. Next, the absorbance at 570 nm (630 nm as reference wavelength) was measured using a microplate reader. The half maximal inhibitory concentration (IC50) for each compound was determined using GraphPad Prism software. Additionally, selectivity indices (SI) were determined by the ratio between IC50 of normal cells and that of cancer cells.
Based on the data obtained from MTT assay, combination indices (CI) were determined using Calcusyn and CompuSyn software (Biosoft, Cambridge, UK). This is based on the established drugs combination method by Chou and Talalay[30],[31]. CI values indicate the type of drugs interaction in which CI < 0.9 indicates synergism, CI = 0.9–1.0 indicates additive and CI > 1.0 indicates antagonism. GraphPad Prism software was used to generate a three-color scale based on CI values obtained, where synergism is represented by green, additive by yellow, and antagonism by red in which the colors of each CI value were interpolated in between these constraints accordingly.
(Tetrazolium assays rely on reduction of a dye to a coloured formazan, in cell work by metabolically active cells.)

As to `[Ru+2].c1ccc(-c2nc3c4cccnc4c4ncccc4c3[nH]2)cc1.c1ccc2nc3c4cccnc4c4ncccc4c3nc2c1.c1ccc2nc3c4cccnc4c4ncccc4c3nc2c1` [Ru-PIP, [Ru(dppz)2(PIP)]^2+], the “levels of apoptotic cells” value in the experiment with A549 cells (24 h, Ru-PIP 25 µM or Olaparib 5 µM) is listed as “comparable levels of apoptotic cells with untreated control”; in the experiment with A549 cells (48 h, Ru-PIP 25 µM alone or with Olaparib 5 µM), “increase in apoptotic cells was observed”. The figures for the IC50 in the experiment with A549 lung cancer cells (24 h), in the experiment with A549 lung cancer cells (48 h) and in the experiment on A549 lung cancer cells (72 h) were 34.5 ± 10.5 µM, 19.4 ± 3.5 µM and 11.4 ± 0.3 µM, respectively. Further, the entries for the “Selectivity Index (SI) = IC50 normal cells/IC50 cancer cells” value in the experiment with A549 lung cancer cells (24 h), in the experiment with A549 lung cancer cells (48 h) and in the experiment with A549 lung cancer cells (72 h) were more than 2.8, 4.6 and more than 8.7, respectively.
